In patent publication US12209081B2 (Katholieke Universiteit Leuven, priority 2020, dated 2025):
Counter-ions that a name gives are not always drawn.

Molecular target: mouse TRPM3α2 (mTRPM3) ion channel (Mus musculus (Mouse), UniProt J9SQF3)
Test: TRPM3 ion channel driven Ca2+ uptake, Fluo-4 AM assay, mTRPM3alpha2 overexpressing flip-in HEK293 cells stimulated with pregnenolone sulfate
Type: cell-based
Conditions: PS (50 μM) stimulated, cpds. 608-666
In short: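 Read-out is Ca2+ influx via Fluo-4 AM fluorescence at 485/535 nm, taken right after seeding ~2000 cells/well onto compound with 50 μM PS. Inhibition computed from RFU between vehicle-stimulated and positive-control-inhibitor wells; cells were mTRPM3α2-overexpressing flip-in HEK293.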

Chain of mouse TRPM3α2 (mTRPM3) ion channel (J9SQF3 other isoform, or with tags, fused parts or gaps): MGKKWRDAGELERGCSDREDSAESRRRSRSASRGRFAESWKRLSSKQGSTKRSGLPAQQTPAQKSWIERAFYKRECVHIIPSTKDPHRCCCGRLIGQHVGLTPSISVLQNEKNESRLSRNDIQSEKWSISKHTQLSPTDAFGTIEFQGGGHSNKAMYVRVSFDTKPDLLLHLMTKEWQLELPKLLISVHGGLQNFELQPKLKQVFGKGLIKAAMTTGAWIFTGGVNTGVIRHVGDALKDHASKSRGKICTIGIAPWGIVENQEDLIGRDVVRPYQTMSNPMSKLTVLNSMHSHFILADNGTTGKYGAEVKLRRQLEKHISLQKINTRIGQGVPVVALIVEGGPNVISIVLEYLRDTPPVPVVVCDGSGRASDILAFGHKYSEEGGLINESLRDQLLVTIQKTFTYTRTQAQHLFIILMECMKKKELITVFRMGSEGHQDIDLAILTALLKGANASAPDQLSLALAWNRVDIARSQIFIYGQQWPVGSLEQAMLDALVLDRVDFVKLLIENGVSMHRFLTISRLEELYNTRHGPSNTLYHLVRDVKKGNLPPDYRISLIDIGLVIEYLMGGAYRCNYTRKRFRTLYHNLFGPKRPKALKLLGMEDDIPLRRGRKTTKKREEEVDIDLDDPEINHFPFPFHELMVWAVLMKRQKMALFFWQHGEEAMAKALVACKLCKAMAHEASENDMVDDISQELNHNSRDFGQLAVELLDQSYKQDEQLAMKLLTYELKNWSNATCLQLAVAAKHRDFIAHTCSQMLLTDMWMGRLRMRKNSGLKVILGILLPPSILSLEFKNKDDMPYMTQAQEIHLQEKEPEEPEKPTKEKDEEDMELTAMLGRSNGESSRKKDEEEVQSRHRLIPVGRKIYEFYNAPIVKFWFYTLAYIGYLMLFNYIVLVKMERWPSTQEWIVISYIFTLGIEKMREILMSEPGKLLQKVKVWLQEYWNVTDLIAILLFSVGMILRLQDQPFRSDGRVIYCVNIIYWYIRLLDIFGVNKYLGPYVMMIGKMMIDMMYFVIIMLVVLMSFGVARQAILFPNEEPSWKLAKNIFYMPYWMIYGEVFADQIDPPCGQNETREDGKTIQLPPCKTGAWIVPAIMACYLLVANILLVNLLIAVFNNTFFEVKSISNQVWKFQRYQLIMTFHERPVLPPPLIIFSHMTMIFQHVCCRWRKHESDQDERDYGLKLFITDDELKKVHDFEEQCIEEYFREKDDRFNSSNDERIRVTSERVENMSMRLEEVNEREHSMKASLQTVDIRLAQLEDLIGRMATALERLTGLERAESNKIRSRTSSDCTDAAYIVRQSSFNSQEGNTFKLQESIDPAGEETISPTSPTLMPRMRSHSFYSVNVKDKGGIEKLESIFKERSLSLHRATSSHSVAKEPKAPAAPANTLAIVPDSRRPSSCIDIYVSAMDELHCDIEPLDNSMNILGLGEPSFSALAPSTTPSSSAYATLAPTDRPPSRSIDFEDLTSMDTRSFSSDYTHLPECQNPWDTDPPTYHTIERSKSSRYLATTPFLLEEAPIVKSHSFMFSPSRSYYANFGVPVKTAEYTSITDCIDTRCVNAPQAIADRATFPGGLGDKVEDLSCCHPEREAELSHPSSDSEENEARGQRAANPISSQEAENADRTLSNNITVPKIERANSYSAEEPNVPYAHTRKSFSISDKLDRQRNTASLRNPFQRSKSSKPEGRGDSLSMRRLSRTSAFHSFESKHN

Row | Compound | IC50 [nM]
1 | Cc1ncsc1C(C)Oc1ccc2oc(C)c(C(=O)NC3(CO)CCOCC3)c2c1 (centres unmarked) [cpd 623-En 1] | < 1000

Same assay, conditions: PS (50 μM) stimulated, cpds. 667-751

Row | Compound | IC50 [nM]
2 | Cc1oc2ccc(OCc3ccc(F)cn3)cc2c1C(=O)N[C@H](C(N)=O)[C@@H](C)O [compound 696, N-((2S,3R)-1-amino-3-hydroxy-1-oxobutan-2-yl)-5-((5-fluoropyridin-2-yl)methoxy)-2-methylbenzofuran-3-carboxamide] | < 1000
3 | Cc1oc2ccc(OCc3cccnc3N3CCC3)cc2c1C(=O)N[C@@H](CO)C(N)=O [compound 706, (S)-N-(1-amino-3-hydroxy-1-oxopropan-2-yl)-5-((2-(azetidin-1-yl)pyridin-3-yl)methoxy)-2-methylbenzofuran-3-carboxamide] | < 1000
4 | Cc1oc2ccc(OCc3cccnc3OC3CC3)cc2c1C(=O)N[C@@H](CO)C(N)=O [compound 710, (S)-N-(1-amino-3-hydroxy-1-oxopropan-2-yl)-5-((2-cyclopropoxypyridin-3-yl)methoxy)-2-methylbenzofuran-3-carboxamide] | < 1000
5 | Cc1oc2ccc(OCc3cccnc3OC3CC3)cc2c1C(=O)NC1(CO)CCOCC1 [compound 711, 5-((2-cyclopropoxypyridin-3-yl)methoxy)-N-(4-(hydroxymethyl)tetrahydro-2H-pyran-4-yl)-2-methylbenzofuran-3-carboxamide] | < 1000
6 | Cc1oc2ccc(OCc3ncccc3C(F)F)cc2c1C(=O)NC1CCNCC1(F)F (centres unmarked) [compound 717, 5-((3-(Difluoromethyl)pyridin-2-yl)methoxy)-N-(3,3-difluoropiperidin-4-yl)-2-methylbenzofuran-3-carboxamide] | < 1000
7 | Cc1oc2ccc(OCc3ccccn3)cc2c1C(=O)N[C@H](C(N)=O)[C@@H](C)O [compound 718, N-((2S,3R)-1-amino-3-hydroxy-1-oxobutan-2-yl)-2-methyl-5-(pyridin-2-ylmethoxy)benzofuran-3-carboxamide] | < 1000
8 | Cc1ncsc1COc1ccc2oc(C)c(C(=O)NC3(C(F)F)CCC3)c2c1 [compound 721, N-(1-(Difluoromethyl)cyclobutyl)-2-methyl-5-((4-methylthiazol-5-yl)methoxy)benzofuran-3-carboxamide] | < 1000
9 | NC(=O)[C@H](CO)NC(=O)c1c(C2CC2)oc2ccc(OCc3ccccn3)cc12 [compound 747, (S)-N-(1-Amino-3-hydroxy-1-oxopropan-2-yl)-2-cyclopropyl-5-(pyridin-2-ylmethoxy)benzofuran-3-carboxamide] | < 1000
10 | Cc1ncsc1COc1ccc2oc(C3CC3)c(C(=O)N[C@@H](CO)C(N)=O)c2c1 [compound 748, (S)-N-(1-Amino-3-hydroxy-1-oxopropan-2-yl)-2-cyclopropyl-5-((4-methylthiazol-5-yl)methoxy)benzofuran-3-carboxamide] | < 1000
11 | Cc1ncc(COc2ccc3oc(C4CC4)c(C(=O)N[C@@H](CO)C(N)=O)c3c2)s1 [compound 749, (S)-N-(1-Amino-3-hydroxy-1-oxopropan-2-yl)-2-cyclopropyl-5-((2-methylthiazol-5-yl)methoxy)benzofuran-3-carboxamide] | < 1000
12 | Cc1ncc(COc2ccc3oc(C4CC4)c(C(=O)N[C@@H](CO)C(N)=O)c3c2)o1 [compound 751, (S)-N-(1-amino-3-hydroxy-1-oxopropan-2-yl)-2-cyclopropyl-5-((2-methyloxazol-5-yl)methoxy) benzofuran-3-carboxamide] | < 1000

Results, then the compound that gave them:

Row | IC50 [nM] | Compound
13 | < 1000 | Cc1oc2ccc(OCc3cncs3)cc2c1C(=O)N[C@@H](CO)C(N)=O [compound 697, (S)-N-(1-Amino-3-hydroxy-1-oxopropan-2-yl)-2-methyl-5-(thiazol-5-ylmethoxy)benzofuran-3-carboxamide]
14 | < 1000 | Cc1oc2ccc(OCc3cnn(C)c3)cc2c1C(=O)N[C@@H](CO)C(N)=O [compound 698, (S)-N-(1-Amino-3-hydroxy-1-oxopropan-2-yl)-2-methyl-5-((1-methyl-1H-pyrazol-4-yl)methoxy)benzofuran-3-carboxamide]
15 | < 1000 | Cc1ccc(COc2ccc3oc(C)c(C(=O)N[C@@H](CO)C(N)=O)c3c2)nc1 [compound 700, (S)-N-(1-Amino-3-hydroxy-1-oxopropan-2-yl)-2-methyl-5-((5-methylpyridin-2-yl)methoxy)benzofuran-3-carboxamide]
16 | < 1000 | Cc1oc2ccc(OCc3cccnc3C3CC3)cc2c1C(=O)N[C@@H](CO)C(N)=O [compound 702, (S)-N-(1-Amino-3-hydroxy-1-oxopropan-2-yl)-5-((2-cyclopropylpyridin-3-yl)methoxy)-2-methylbenzofuran-3-carboxamide]
17 | < 1000 | Cc1oc2ccc(OCc3ncccc3C3CC3)cc2c1C(=O)N[C@@H](CO)C(N)=O [compound 704, (S)-N-(1-Amino-3-hydroxy-1-oxopropan-2-yl)-5-((3-cyclopropylpyridin-2-yl)methoxy)-2-methylbenzofuran-3-carboxamide]
18 | < 1000 | Cc1ncc(COc2ccc3oc(C)c(C(=O)N[C@@H](CO)C(N)=O)c3c2)cn1 [compound 708, (S)-N-(1-Amino-3-hydroxy-1-oxopropan-2-yl)-2-methyl-5-((2-methylpyrimidin-5-yl)methoxy)benzofuran-3-carboxamide]
19 | < 1000 | Cc1oc2ccc(OCc3ncccn3)cc2c1C(=O)N[C@@H](CO)C(N)=O [compound 712, (S)-N-(1-Amino-3-hydroxy-1-oxopropan-2-yl)-2-methyl-5-(pyrimidin-2-ylmethoxy)benzofuran-3-carboxamide]
20 | < 1000 | Cc1oc2ccc(OCc3cnccn3)cc2c1C(=O)N[C@@H](CO)C(N)=O [compound 714, (S)-N-(1-Amino-3-hydroxy-1-oxopropan-2-yl)-2-methyl-5-(pyrazin-2-ylmethoxy)benzofuran-3-carboxamide]
21 | < 1000 | COc1ncccc1COc1ccc2oc(C)c(C(=O)N[C@@H](CO)C(N)=O)c2c1 [compound 715, (S)-N-(1-amino-3-hydroxy-1-oxopropan-2-yl)-5-((2-methoxypyridin-3-yl)methoxy)-2-methylbenzofuran-3-carboxamide]
22 | < 1000 | Cc1oc2ccc(OCc3ccncc3)cc2c1C(=O)N[C@@H](CO)C(N)=O [compound 716, (S)-N-(1-Amino-3-hydroxy-1-oxopropan-2-yl)-2-methyl-5-(pyridin-4-ylmethoxy)benzofuran-3-carboxamide]
23 | < 1000 | Cc1oc2ccc(OCc3ccc(F)cn3)cc2c1C(=O)N[C@@H](CO)C(N)=O [compound 741, (S)-N-(1-Amino-3-hydroxy-1-oxopropan-2-yl)-5-((5-fluoropyridin-2-yl)methoxy)-2-methylbenzofuran-3-carboxamide]
24 | < 1000 | Cc1ncsc1COc1ccc2oc(C(F)F)c(C(=O)N[C@@H](CO)C(N)=O)c2c1 [compound 742, (S)-N-(1-amino-3-hydroxy-1-oxopropan-2-yl)-2-(difluoromethyl)-5-((4-methylthiazol-5-yl)methoxy)benzofuran-3-carboxamide]
25 | < 1000 | Cc1ccc(COc2ccc3oc(C(F)F)c(C(=O)N[C@@H](CO)C(N)=O)c3c2)cn1 [compound 743, (S)-N-(1-Amino-3-hydroxy-1-oxopropan-2-yl)-2-(difluoromethyl)-5-((6-methylpyridin-3-yl)methoxy)benzofuran-3-carboxamide]
26 | < 1000 | NC(=O)[C@H](CO)NC(=O)c1c(C(F)F)oc2ccc(OCc3ccccn3)cc12 [compound 744]
27 | < 1000 | Cc1ncc(COc2ccc3oc(C(F)F)c(C(=O)N[C@@H](CO)C(N)=O)c3c2)s1 [compound 745, (S)-N-(1-amino-3-hydroxy-1-oxopropan-2-yl)-2-(difluoromethyl)-5-((2-methylthiazol-5-yl)methoxy)benzofuran-3-carboxamide]
28 | < 1000 | Cc1ncc(COc2ccc3oc(C(F)F)c(C(=O)N[C@@H](CO)C(N)=O)c3c2)o1 [compound 746, (S)-N-(1-amino-3-hydroxy-1-oxopropan-2-yl)-2-(difluoromethyl)-5-((2-methyloxazol-5-yl)methoxy)benzofuran-3-carboxamide]
29 | < 1000 | Cc1ccc(COc2ccc3oc(C4CC4)c(C(=O)N[C@@H](CO)C(N)=O)c3c2)cn1 [compound 750, (S)-N-(1-Amino-3-hydroxy-1-oxopropan-2-yl)-2-cyclopropyl-5-((6-methylpyridin-3-yl)methoxy)benzofuran-3-carboxamide]

Molecular target: TRPM3 (Homo sapiens (Human), UniProt Q9HCF6)
Test: not given
Conditions: Wagner et al., 2008; cited from earlier work

Chain of TRPM3 (Homo sapiens (Human), UniProt Q9HCF6) (Q9HCF6 whole entry, species assumed): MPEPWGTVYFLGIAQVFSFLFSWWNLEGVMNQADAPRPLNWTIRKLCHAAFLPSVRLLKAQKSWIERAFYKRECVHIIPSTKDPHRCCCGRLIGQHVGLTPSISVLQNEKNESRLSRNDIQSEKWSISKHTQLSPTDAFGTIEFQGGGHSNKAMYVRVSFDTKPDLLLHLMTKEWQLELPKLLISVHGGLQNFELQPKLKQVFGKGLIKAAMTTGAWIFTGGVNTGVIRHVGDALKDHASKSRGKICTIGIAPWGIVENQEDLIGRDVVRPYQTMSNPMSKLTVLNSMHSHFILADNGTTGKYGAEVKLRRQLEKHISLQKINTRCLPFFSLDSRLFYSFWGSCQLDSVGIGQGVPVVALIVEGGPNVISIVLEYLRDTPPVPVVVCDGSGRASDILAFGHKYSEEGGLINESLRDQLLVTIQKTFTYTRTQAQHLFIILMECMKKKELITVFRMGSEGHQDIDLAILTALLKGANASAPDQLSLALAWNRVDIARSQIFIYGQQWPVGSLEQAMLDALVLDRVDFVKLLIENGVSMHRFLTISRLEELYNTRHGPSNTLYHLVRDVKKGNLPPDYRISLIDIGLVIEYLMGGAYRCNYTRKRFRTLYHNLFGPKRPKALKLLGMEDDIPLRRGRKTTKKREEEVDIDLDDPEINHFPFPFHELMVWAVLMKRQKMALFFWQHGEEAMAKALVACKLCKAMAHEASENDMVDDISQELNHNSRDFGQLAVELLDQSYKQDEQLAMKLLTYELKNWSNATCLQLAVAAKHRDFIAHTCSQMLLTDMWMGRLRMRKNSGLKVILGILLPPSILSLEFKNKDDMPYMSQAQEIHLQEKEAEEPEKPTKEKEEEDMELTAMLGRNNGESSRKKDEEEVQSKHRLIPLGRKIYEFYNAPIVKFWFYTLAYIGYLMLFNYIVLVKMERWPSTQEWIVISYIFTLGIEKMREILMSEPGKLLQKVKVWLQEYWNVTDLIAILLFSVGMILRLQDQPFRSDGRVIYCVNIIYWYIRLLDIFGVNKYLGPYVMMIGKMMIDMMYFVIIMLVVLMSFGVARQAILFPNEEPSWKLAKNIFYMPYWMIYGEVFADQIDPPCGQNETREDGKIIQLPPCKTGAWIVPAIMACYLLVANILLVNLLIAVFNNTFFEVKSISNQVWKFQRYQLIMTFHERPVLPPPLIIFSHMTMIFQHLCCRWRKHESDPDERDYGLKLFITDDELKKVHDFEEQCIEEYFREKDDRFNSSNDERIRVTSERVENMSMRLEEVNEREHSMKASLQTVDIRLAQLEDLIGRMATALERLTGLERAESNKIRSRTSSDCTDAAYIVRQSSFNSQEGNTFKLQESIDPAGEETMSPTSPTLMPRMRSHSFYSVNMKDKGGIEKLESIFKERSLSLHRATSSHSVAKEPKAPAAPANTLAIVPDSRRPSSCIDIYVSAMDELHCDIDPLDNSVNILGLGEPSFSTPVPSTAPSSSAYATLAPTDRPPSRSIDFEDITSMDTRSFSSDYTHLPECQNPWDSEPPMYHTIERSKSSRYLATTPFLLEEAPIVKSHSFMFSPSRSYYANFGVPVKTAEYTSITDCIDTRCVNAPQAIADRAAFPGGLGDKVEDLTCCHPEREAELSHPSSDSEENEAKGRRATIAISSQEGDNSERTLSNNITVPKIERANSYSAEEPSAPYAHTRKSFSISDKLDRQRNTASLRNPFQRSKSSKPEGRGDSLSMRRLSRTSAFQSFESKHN

Row | Compound | activator of TRPM3
30 | CC(=O)C1CCC2C3CC=C4CC(OS(=O)(=O)O)CCC4(C)C3CCC12C (centres unmarked) [pregnenolone sulfate, Pregnenolone sulfate] | potent known activator of TRPM3

System: TRPM3
Test: not given
Conditions: wild type mice vs knock-out TRPM3 mice; cited from earlier work

Row | Compound | evoked pain
31 | CC(=O)C1CCC2C3CC=C4CC(OS(=O)(=O)O)CCC4(C)C3CCC12C (centres unmarked) [pregnenolone sulfate, Pregnenolone sulfate] | evoked pain in wild type mice but not in knock-out TRPM3 mice

System: TRPM3
Test: not given
Conditions: rat pain model; Chen L et al. 2014; cited from earlier work

Row | Compound | mechanical and cold hyperalgesia
32 | O=C1C[C@@H](c2ccc(O)cc2)Oc2cc(O)ccc21 [Liquiritigenin] | decrease mechanical and cold hyperalgesia
